Reference: ChEMBL document CHEMBL4507274 (2021)

Legend:
Conditions in all cases: Compound concentration 100.0 nM
[1] = molecular target: RAC-gamma serine/threonine-protein kinase (Homo sapiens) (UniProt Q9Y243)
[2] = tested on: ALK tyrosine kinase receptor (Homo sapiens), Q9UM73 [C1156Y]
[3] = tested on: ALK tyrosine kinase receptor (Homo sapiens), Q9UM73 [L1196M]
[4] = molecular target: 5'-AMP-activated protein kinase catalytic subunit alpha-1 (Homo sapiens) (UniProt Q13131)
[5] = molecular target: T1, Aurora kinase A (Homo sapiens) (UniProt O14965)
T1 sequence (whole entry): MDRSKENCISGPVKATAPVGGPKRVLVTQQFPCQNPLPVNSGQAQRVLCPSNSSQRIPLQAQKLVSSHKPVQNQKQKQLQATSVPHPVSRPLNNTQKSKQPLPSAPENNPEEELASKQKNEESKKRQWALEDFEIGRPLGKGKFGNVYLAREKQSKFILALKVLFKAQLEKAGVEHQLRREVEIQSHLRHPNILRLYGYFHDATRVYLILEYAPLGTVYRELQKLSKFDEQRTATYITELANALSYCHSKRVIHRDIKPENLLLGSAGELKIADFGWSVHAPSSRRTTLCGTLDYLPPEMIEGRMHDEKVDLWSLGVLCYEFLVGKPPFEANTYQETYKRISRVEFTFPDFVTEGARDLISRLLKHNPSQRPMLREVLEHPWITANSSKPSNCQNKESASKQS

[6] = molecular target: Serine/threonine-protein kinase BRSK1 (Homo sapiens) (UniProt Q8TDC3)
[7] = molecular target: Tyrosine-protein kinase BTK (Homo sapiens) (UniProt Q06187)
[8] = molecular target: Serine/threonine-protein kinase Chk2 (Homo sapiens) (UniProt O96017)
[9] = molecular target: Citron Rho-interacting kinase (Homo sapiens) (UniProt O14578)
[10] = molecular target: Casein kinase I isoform epsilon (Homo sapiens) (UniProt P49674)
Chain of Casein kinase I isoform epsilon (Homo sapiens) (P49674 whole entry, looked up, canonical isoform): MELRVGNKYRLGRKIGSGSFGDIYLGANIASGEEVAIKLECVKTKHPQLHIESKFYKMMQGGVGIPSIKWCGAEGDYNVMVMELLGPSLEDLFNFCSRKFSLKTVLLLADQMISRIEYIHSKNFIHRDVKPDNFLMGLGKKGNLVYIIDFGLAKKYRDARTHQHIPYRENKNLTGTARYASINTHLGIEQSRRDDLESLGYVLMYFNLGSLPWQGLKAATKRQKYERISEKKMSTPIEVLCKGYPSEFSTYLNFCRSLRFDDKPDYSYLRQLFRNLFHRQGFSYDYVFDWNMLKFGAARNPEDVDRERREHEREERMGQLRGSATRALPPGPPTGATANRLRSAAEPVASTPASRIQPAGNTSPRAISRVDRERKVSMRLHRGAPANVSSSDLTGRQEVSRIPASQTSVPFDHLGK

[11] = molecular target: Death-associated protein kinase 1 (Homo sapiens) (UniProt P53355)
[12] = molecular target: Serine/threonine-protein kinase DCLK3 (Homo sapiens) (UniProt Q9C098)
[13] = molecular target: Mitogen-activated protein kinase kinase kinase 12 (Homo sapiens) (UniProt Q12852)
[14] = molecular target: Ephrin type-B receptor 2 (Homo sapiens) (UniProt P29323)
[15] = molecular target: Mitogen-activated protein kinase 7 (Homo sapiens) (UniProt Q13164)
[16] = molecular target: Tyrosine-protein kinase Fes/Fps (Homo sapiens) (UniProt P07332)
[17] = molecular target: Receptor-type tyrosine-protein kinase FLT3 (Homo sapiens) (UniProt P36888)
[18] = molecular target: Inhibitor of nuclear factor kappa-B kinase subunit beta (Homo sapiens) (UniProt O14920)
Chain of Inhibitor of nuclear factor kappa-B kinase subunit beta (Homo sapiens) (O14920 whole entry): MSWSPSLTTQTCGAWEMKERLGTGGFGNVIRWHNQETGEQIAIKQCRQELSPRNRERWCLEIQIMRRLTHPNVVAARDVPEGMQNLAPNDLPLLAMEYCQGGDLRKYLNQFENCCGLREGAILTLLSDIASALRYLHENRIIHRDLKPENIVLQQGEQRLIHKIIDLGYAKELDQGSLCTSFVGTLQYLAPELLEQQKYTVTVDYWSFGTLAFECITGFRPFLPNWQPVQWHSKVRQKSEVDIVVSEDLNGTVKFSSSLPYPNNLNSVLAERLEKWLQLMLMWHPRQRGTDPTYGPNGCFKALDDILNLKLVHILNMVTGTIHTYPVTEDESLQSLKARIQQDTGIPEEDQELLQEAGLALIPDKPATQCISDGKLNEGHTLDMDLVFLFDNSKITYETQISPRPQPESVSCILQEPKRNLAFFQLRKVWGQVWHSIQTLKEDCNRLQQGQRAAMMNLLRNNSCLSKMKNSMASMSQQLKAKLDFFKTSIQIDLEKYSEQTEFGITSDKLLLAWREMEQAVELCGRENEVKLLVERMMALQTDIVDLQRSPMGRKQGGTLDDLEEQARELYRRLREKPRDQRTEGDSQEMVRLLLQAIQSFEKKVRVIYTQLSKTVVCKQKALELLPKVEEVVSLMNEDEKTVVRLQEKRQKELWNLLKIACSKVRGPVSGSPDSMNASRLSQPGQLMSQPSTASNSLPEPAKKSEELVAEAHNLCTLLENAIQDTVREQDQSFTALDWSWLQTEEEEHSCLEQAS

[19] = molecular target: Interleukin-1 receptor-associated kinase 4 (Homo sapiens) (UniProt Q9NWZ3)
Chain of Interleukin-1 receptor-associated kinase 4 (Homo sapiens) (Q9NWZ3 whole entry): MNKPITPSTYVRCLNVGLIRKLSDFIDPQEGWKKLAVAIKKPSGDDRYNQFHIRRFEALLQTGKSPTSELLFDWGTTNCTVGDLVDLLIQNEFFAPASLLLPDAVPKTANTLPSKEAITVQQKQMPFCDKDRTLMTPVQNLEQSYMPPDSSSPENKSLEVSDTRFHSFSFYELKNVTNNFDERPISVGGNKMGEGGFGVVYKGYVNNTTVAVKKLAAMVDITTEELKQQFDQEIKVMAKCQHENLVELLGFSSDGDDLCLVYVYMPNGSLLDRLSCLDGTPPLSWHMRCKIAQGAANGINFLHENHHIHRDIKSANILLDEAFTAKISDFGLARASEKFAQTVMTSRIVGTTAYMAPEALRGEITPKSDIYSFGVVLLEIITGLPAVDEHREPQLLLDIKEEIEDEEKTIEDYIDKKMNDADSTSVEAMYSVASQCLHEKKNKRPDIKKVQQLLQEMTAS

[20] = molecular target: Tyrosine-protein kinase JAK3 (Homo sapiens) (UniProt P52333)
[21] = molecular target: Mitogen-activated protein kinase 10 (Homo sapiens) (UniProt P53779)
[22] = molecular target: Mast/stem cell growth factor receptor Kit (Homo sapiens) (UniProt P10721)
Chain of Mast/stem cell growth factor receptor Kit (Homo sapiens) (P10721 whole entry): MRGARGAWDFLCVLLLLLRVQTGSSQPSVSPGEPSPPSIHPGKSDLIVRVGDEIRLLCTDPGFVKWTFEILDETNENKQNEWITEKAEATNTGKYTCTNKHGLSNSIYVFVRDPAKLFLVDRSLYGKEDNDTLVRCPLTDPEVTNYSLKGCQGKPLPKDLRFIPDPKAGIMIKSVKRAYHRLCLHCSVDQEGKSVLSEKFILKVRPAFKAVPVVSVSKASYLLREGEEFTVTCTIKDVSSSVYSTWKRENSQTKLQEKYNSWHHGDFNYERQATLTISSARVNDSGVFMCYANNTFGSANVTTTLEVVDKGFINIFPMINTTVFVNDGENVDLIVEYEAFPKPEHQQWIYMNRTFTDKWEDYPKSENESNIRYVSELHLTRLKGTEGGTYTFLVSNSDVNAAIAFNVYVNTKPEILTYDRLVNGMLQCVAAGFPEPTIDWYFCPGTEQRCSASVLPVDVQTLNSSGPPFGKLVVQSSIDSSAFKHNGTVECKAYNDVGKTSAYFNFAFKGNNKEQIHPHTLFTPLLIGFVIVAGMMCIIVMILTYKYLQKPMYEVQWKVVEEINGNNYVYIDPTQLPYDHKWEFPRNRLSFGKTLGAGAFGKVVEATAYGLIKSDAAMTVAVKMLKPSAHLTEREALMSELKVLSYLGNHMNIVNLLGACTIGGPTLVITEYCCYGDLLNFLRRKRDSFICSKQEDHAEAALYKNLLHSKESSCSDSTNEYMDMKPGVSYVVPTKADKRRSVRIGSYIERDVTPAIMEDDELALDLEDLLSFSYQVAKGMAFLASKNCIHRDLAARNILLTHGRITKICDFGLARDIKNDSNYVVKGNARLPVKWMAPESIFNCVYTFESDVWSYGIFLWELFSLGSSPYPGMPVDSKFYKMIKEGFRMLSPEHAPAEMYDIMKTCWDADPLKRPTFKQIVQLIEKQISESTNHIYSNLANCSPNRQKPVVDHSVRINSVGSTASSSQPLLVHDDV

[23] = molecular target: Mitogen-activated protein kinase kinase kinase 1 (Homo sapiens) (UniProt Q13233)
[24] = molecular target: T2, MAP kinase-activated protein kinase 5 (Homo sapiens) (UniProt Q8IW41)
T2 sequence (whole entry): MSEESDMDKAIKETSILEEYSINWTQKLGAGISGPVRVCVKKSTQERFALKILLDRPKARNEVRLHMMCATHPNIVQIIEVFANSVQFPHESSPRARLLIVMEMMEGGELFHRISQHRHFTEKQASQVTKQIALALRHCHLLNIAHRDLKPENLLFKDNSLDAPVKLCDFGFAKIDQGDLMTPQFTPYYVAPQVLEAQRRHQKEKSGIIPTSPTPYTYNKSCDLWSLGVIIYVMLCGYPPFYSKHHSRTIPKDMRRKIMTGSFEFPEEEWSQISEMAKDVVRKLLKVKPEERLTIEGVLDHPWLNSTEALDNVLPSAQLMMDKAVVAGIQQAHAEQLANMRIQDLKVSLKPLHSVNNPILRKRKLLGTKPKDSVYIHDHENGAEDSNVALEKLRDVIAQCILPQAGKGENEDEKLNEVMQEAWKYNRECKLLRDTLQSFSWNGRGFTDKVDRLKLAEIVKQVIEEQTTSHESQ

[25] = molecular target: Maternal embryonic leucine zipper kinase (Homo sapiens) (UniProt Q14680)
Chain of Maternal embryonic leucine zipper kinase (Homo sapiens) (Q14680 whole entry, looked up): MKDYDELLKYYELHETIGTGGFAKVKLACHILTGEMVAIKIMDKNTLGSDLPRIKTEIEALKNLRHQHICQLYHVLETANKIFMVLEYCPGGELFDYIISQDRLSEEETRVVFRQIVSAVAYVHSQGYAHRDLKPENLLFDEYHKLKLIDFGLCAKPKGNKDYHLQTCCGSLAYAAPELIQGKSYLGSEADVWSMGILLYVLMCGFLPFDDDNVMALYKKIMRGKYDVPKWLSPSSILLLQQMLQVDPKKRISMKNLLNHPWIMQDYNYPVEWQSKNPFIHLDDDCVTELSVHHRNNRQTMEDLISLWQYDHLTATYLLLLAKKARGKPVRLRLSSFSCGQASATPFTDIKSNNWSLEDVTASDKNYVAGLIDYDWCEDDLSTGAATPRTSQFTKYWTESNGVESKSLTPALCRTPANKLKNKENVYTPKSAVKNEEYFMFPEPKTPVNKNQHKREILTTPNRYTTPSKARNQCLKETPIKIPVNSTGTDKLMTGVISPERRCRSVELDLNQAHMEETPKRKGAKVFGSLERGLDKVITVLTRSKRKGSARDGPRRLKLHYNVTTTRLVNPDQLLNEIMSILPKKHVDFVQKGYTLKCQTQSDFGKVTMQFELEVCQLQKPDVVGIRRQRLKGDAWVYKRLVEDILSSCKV

[26] = molecular target: Serine/threonine-protein kinase mTOR (Homo sapiens) (UniProt P42345)
[27] = molecular target: Phosphatidylinositol 4,5-bisphosphate 3-kinase catalytic subunit gamma isoform (Homo sapiens) (UniProt P48736)
[28] = molecular target: 1-phosphatidylinositol 3-phosphate 5-kinase (Homo sapiens) (UniProt Q9Y2I7)
[29] = molecular target: Phosphatidylinositol 5-phosphate 4-kinase type-2 beta (Homo sapiens) (UniProt P78356)
[30] = molecular target: Ribosomal protein S6 kinase alpha-6 (Homo sapiens) (UniProt Q9UK32)
[31] = molecular target: Proto-oncogene tyrosine-protein kinase Src (Homo sapiens) (UniProt P12931)
[32] = molecular target: Activated CDC42 kinase 1 (Homo sapiens) (UniProt Q07912)
Chain of Activated CDC42 kinase 1 (Homo sapiens) (Q07912 whole entry, looked up): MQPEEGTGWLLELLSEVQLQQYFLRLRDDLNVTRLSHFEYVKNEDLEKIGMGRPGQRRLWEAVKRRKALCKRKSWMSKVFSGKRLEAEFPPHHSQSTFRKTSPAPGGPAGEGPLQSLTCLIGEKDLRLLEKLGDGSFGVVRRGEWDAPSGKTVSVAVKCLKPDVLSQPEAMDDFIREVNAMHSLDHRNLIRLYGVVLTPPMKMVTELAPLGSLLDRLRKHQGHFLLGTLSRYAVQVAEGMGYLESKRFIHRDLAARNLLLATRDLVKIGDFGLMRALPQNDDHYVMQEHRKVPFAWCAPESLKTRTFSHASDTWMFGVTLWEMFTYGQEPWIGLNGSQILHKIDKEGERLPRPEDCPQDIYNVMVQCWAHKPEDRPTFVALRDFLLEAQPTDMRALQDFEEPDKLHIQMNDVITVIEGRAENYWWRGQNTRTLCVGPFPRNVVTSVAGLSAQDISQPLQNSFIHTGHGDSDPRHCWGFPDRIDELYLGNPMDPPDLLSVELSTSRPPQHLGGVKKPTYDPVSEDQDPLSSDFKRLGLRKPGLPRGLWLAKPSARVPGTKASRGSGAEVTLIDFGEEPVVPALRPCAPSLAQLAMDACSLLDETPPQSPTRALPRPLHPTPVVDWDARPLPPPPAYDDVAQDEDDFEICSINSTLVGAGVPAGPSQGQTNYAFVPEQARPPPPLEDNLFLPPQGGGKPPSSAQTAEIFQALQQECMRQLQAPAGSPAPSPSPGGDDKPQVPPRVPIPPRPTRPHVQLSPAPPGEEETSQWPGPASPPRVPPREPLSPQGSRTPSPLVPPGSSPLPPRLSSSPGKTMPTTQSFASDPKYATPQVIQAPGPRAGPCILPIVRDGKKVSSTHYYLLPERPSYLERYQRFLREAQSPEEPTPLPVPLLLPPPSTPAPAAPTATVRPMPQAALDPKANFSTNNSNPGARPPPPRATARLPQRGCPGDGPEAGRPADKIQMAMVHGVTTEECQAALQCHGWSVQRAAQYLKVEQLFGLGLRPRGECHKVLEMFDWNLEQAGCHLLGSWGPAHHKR

Measured: residual activity

Chain of RAC-gamma serine/threonine-protein kinase (Homo sapiens) (Q9Y243 whole entry): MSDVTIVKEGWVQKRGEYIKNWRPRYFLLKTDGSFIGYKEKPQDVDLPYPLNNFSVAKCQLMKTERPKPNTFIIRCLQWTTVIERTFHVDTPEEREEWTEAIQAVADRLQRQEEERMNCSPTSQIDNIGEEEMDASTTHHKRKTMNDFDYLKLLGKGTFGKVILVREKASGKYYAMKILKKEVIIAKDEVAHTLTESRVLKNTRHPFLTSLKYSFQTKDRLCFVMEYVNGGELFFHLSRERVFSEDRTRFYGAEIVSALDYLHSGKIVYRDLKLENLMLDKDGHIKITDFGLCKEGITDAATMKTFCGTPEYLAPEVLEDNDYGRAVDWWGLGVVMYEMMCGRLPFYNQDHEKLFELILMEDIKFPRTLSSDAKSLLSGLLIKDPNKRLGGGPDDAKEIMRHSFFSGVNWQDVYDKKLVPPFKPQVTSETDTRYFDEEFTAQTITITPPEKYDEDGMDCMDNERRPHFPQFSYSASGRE

Cc1c[nH]c2nccc(Oc3c(F)cc(Nc4cc(Cl)nc(N)n4)cc3F)c12 [BAY-549]
inactive: [1] 78% | [2] 100% | [3] 99% | [4] 100% | [5] 94% | [6] 96% | [7] 96% | [8] 89% | [9] 100% | [10] 64% | [11] 98% | [12] 97% | [13] 98% | [14] 99% | [15] 82% | [16] 100% | [17] 76% | [18] 69% | [19] 85% | [20] 92% | [21] 81% | [22] 77% | [23] 82% | [24] 81% | [25] 57% | [26] 85% | [27] 88% | [28] 98% | [29] 90% | [30] 95% | [31] 100% | [32] 95%

Cn1cc(Cl)c2c(Oc3c(F)cc(Nc4cc(Cl)nc(N)n4)cc3F)ccnc21 [BAY-4900]
inactive: [1] 98% | [2] 100% | [3] 100% | [4] 100% | [5] 100% | [6] 100% | [7] 84% | [8] 94% | [9] 100% | [10] 98% | [11] 100% | [12] 89% | [13] 100% | [14] 100% | [15] 100% | [16] 100% | [17] 100% | [18] 87% | [19] 90% | [20] 94% | [21] 80% | [22] 78% | [23] 76% | [24] 100% | [25] 89% | [26] 85% | [27] 82% | [28] 91% | [29] 76% | [30] 72% | [31] 92% | [32] 85%
